# Assay results reported in patent US10441669B2, “Multifunctional chelators, complexes, and compositions thereof, and methods of using same” (ILLINOIS INSTITUTE OF TECHNOLOGY, priority 2013, dated 2019).
# How the values were obtained:
# [1] = In vitro serum stability of 90Y-radiolabeled bimodal chelator complexes; assay type: in vitro ADME; conditions: 90Y complex, human serum, pH 7, 37° C.
# Experimental: Human serum was purchased from Gemini Bioproducts (#100110). The radiolabeled complexes was prepared and directly used for serum stability studies without further purification. The stability of the pure radiolabeled complexes in human serum was evaluated at 37° C. for 2 weeks. The serum stability of the radiolabeled complexes was assessed by measuring the transfer of the radionuclide from each complex to serum proteins using ITLC (acetonitrile/water (3:2 v/v). A solution of the radiolabeled complex in serum (5-16 μL for ITLC) was withdrawn at the designated time point and evaluated by ITLC. At each of the time points, the percentage of ^90Y released from each of the radiolabeled complexes into serum was assessed by ITLC.
# [2] = In vitro serum stability of 177Lu-radiolabeled bimodal chelator complexes; assay type: in vitro ADME; conditions: 177Lu complex, human serum, pH 7, 37° C.
# [3] = Serum stability of 64Cu-radiolabeled complexes of pyridyl chelators; assay type: in vitro ADME; conditions: 64Cu complex, human serum, 37° C.
# Experimental: In vitro serum stability of the radiolabeled complexes was performed to determine if the chelators radiolabeled with ^64Cu remained stable without loss of the radioactivity in human serum as described above. All ^64Cu-radiolabeled chelators remained intact in human serum for 2 days as evidenced by ITLC and HPLC analysis.
# [4] = EDTA challenge of 177Lu-radiolabeled pyridyl chelators; assay type: physicochemical; conditions: 37° C.; for stability of 177Lu complex in EDTA solution: EDTA 100-fold molar excess, 24 h; for Bound (%): Lu-177 complex, EDTA solution 100-fold molar excess
# Experimental: (§1) ^64Cu- or ^177Lu-radiolabeled complexes were prepared by reaction of each chelator (20 μg) with ^64Cu or ^177Lu (60 μCi) in 0.25M NH4OAc buffer (pH 5.5) for 2 h at room temperature. The radiolabeled complexes were prepared as described above and directly used for the experiments. The radiolabeled complex was mixed with EDTA at a 100-fold molar excess. The resulting mixture was incubated for 24 h at 37° C. The stability of ^64Cu-radiolabeled complexes in the solution was evaluated using ITLC (20 mM EDTA in 0.15M NH40OAc).
# [5] = EDTA challenge of 64Cu-radiolabeled pyridyl chelator; assay type: physicochemical; conditions: 37° C.; for Bound (%): Cu-64 complex, EDTA solution 100-fold molar excess
# Experimental: as §1
# [6] = EDTA challenge of 64Cu-radiolabeled complexes of chelators A-F; assay type: physicochemical; conditions: EDTA 100-fold molar excess; for Bound complex (%): 64Cu complex, 37° C.; for 64Cu activity dissociated from the complex / transferred to EDTA: 24 h time point
# Experimental: ^64Cu-radiolabeled complexes were further evaluated for complex stability based on EDTA challenge. ^64Cu-radiolabeled complexes were freshly prepared and treated with a solution of EDTA at a 100-fold molar excess, and the resulting solution (pH 5.5) was incubated at 37° C. for 24 h. […] Among the complexes tested, ^64Cu-radiolabeled pentadentate chelator B was least tolerant of EDTA treated, and most of ^64Cu was dissociated from the complex (˜80%) at 24 h time point. ^64Cu-radiolabeled chelator C containing the carbonyl donor group was found dissociated rapidly in the presence of the excess EDTA, and 50% of the activity was transchelated by EDTA at 1 h time point. ^64Cu-radiolabeled chelators D and F with the respective hydroxyl and thiophenyl donor group were slower in dissociation than ^64Cu-radiolabeled chelators B and C and released >45% of ^64Cu at 24 h time point. Dissociation of the activity from the ^64Cu-radiolabeled chelators was also measured using radio-HPLC at 25 h time point (FIG. 5). The peak related to ^64Cu-EDTA (tR=2.5 min) was clearly separated from bound ^64Cu complex of the chelators. ^64Cu-radiolabeled complex of polar chelators E and F have the respective retention time at […] and 6.2 min, while other ^64Cu-radiolabeled complexes have similar retention time (tR=7˜8 min). The ^64Cu-radiolabeled chelators C and D gave a small peak (tR=˜3 min and tR=˜7 min, respectively).
# ^64Cu-radiolabeled complexes were prepared by reaction of each chelator (20 μg) with ^64Cu (60 μCi) in 0.25M NH4OAc buffer (pH 5.5) for 2 h at room temperature. The radiolabeled complexes were prepared as described above and directly used for the experiments. ^64Cu-radiolabeled complex was mixed with EDTA at a 100-fold molar excess. The resulting mixture was incubated for 24 h at 37° C. The stability of ^64Cu-radiolabeled complexes in the solution was evaluated using ITLC (20 mM EDTA in 0.15M NH4OAc). A solution of the radiolabeled complex in serum (3˜20 μL) was withdrawn at the designated time points and evaluated by ITLC as described above. Stability of the complexes was also evaluated at 25 h time point by HPLC (solvent A: 0.1% TFA in H2O, solvent B: 0.1% TFA in CH3CN, 0-100% B/15 min, flow rate: 1 mL/min). ^64Cu-EDTA complex was eluted early (tR=˜2.5 min), while ^64Cu-radiolabeled complexes of chelators A-D, E, and F have the respective retention time (tR=7˜8 min, tR=4.6 min, and tR=6.2 min).
# [7] = Stability and radioactivity level of 64Cu complexes in mice; assay type: in vivo; conditions: 64Cu complex
SMILES,"Bound complex (%) ([3]; pH 7, HPLC, 0 hour)","Bound complex (%) ([3]; pH 7, HPLC, 19 hour)","Bound complex (%) ([3]; pH 7, HPLC, 48 hour)","Bound complex (%) ([3]; pH 7, ITLC, 0 hour)","Bound complex (%) ([3]; pH 7, ITLC, 19 hour)","Bound complex (%) ([3]; pH 7, ITLC, 48 hour)","Bound complex (%) ([6]; pH 5.5, ITLC, 0 h)","Bound complex (%) ([6]; pH 5.5, ITLC, 1 h)","Bound complex (%) ([6]; pH 5.5, ITLC, 4 h)","Bound complex (%) ([6]; pH 5.5, ITLC, 19 h)","Bound complex (%) ([6]; pH 5.5, ITLC, 24 h)","Bound complex (%) ([6]; pH 5.5, radio-HPLC, 25 h)",also measured
O=C(O)CN1CCN(CCN(CC(=O)O)CC(=O)O)CCN(CC(CCCc2ccc([N+](=O)[O-])cc2)N(CC(=O)O)CC(=O)O)CC1 (centres unmarked) [Chelator 1],,,,,,,,,,,,,Bound radiolabeled complex (%) ([1]; 0 hour): 100 ± 0.00%; Bound radiolabeled complex (%) ([1]; 262 hour): 98.9 ± 1.34%; Bound radiolabeled complex (%) ([1]; 286 hour): 97.3 ± 2.92%; Bound radiolabeled complex (%) ([1]; 313 hour): 97.2 ± 2.46%; Bound radiolabeled complex (%) ([1]; 336 hour): 98.4 ± 0.67%; Bound radiolabeled complex (%) ([2]; 0 hour): 100 ± 0.07%; Bound radiolabeled complex (%) ([2]; 312 hour): 100 ± 0.00%
"O=C(O)CN(CCN1CCN(CCN(CC(=O)O)CC(=O)O)CCN(CC(CCCc2ccc([N+](=O)[O-])cc2)N(CC(=O)O)CC(=O)O)CC1)CC(=O)O (centres unmarked) [Chelator 2, 2-{[2-(4-{2-[bis(carboxymethyl)amino]-5-(4-nitrophenyl)pentyl}-7-{2-[bis(carboxy-methyl)amino]ethyl}-1,4,7-triazonan-1-yl)ethyl](carboxymethyl)amino}acetic acid]",,,,,,,,,,,,,Bound radiolabeled complex (%) ([2]; 0 hour): 99.9 ± 0.0%
O=C(O)CN1CCN(CCN(CC(=O)O)Cc2ccccn2)CCN(CC(=O)O)CC1 [Chelator 4],(99.9 ± 0.0) %,(99.9 ± 0.07) %,(100.0 ± 0.0) %,99.9 ± 0.0%,100 ± 0.0%,100 ± 0.07%,,,,,,,"stability of 177Lu complex in EDTA solution [4]: remained stable in EDTA solution without releasing significant amount of the radioactivity; Bound (%) ([4]; pH 5.5, 0 hour): 99.8%; Bound (%) ([4]; pH 5.5, 1 hour): 99.5%; Bound (%) ([4]; pH 5.5, 6 hour): 99.2%; Bound (%) ([4]; pH 5.5, 24 hour): 98.3%"
NCCCNC(=O)c1ccc(CN(CCN2CCN(CC(=O)O)CCN(CC(=O)O)CC2)CC(=O)O)nc1 [Chelator 10],(98.3 ± 2.0) %,(96.7 ± 0.0) %,(97.2 ± 0.21) %,99.9 ± 0.07%,99.8 ± 0.14%,99.9 ± 0.0%,,,,,,,"stability of 177Lu complex in EDTA solution [4]: remained stable in EDTA solution without releasing significant amount of the radioactivity; Bound (%) ([4]; pH 5.5, 0 hour): 99.8%; Bound (%) ([4]; pH 5.5, 1 hour): 95.7%; Bound (%) ([4]; pH 5.5, 6 hour): 94.9%; Bound (%) ([4]; pH 5.5, 24 hour): 94.6%"
NCCCNC(=O)c1ccc(CN2CCN(CC(=O)O)CCN(CC(=O)O)CC2)nc1 [Chelator 13],(100 ± 0.0) %,(100 ± 0.0) %,(100 ± 0.0) %,100.0 ± 0.07%,100.0 ± 0.0^ %,99.9 ± 0.07%,,,,,,,"Bound (%) ([5]; pH 5.5, 0 hour): 100 ± 0.07%; Bound (%) ([5]; pH 5.5, 1 hour): 99.9 ± 0.07%; Bound (%) ([5]; pH 5.5, 24 hour): 99.2 ± 0.42%; stability of 64Cu complex in EDTA challenge ([5]; EDTA 100-fold molar excess, 24 h): extremely stable in EDTA challenge"
"O=C(O)CN1CCN(CC(=O)O)CCN(C(CCc2ccc([N+](=O)[O-])cc2)C(=O)O)CC1 (centres unmarked) [Chelator A, 2-[4,7-bis(carboxymethyl)-1,4,7-triazonan-1-yl]-4-(4-nitrophenyl)butanoic acid, reference compound]",,,,,,,99.9 ± 0.1%,98.6 ± 0.6%,96.8 ± 0.0%,95.3 ± 0.5%,94.9 ± 0.0%,90.3 ± 0.3%,64Cu activity dissociated from the complex / transferred to EDTA [6]: ~5%; stability in mice and radioactivity level in blood and normal organs [7]: stable in mice and displayed low radioactivity level in the blood and the normal organs
"O=C(O)CN1CCN(CCCc2ccc([N+](=O)[O-])cc2)CCN(CC(=O)O)CC1 [Chelator B, 2-[4-(carboxymethyl)-7-[3-(4-nitrophenyl)propyl]-1,4,7-triazonan-1-yl]acetic acid]",,,,,,,99.9 ± 0.1%,90.4 ± 0.1%,69.2 ± 0.3%,22.9 ± 2.1%,19.4 ± 1.1%,11.9 ± 0.6%,64Cu activity dissociated from the complex / transferred to EDTA [6]: ~80%
"O=C(O)CN1CCN(CC(=O)O)CCN(CC(=O)CCc2ccc([N+](=O)[O-])cc2)CC1 [Chelator C, 2-[4-(carboxymethyl)-7-[4-(4-nitrophenyl)-2-oxobutyl]-1,4,7-triazonan-1-yl]acetic acid]",,,,,,,97.7 ± 0.2%,50.4 ± 0.4%,45.8 ± 1.5%,41.0 ± 0.4%,39.0 ± 0.2%,21.7 ± 1.3%,64Cu activity transchelated by EDTA ([6]; 1 h time point): 50%
"O=C(O)CN1CCN(CC(=O)O)CCN(CC(O)CCc2ccc([N+](=O)[O-])cc2)CC1 (centres unmarked) [Chelator D, 2-[4-(carboxymethyl)-7-[2-hydroxy-4-(4-nitrophenyl)butyl]-1,4,7-triazonan-1-yl]acetic acid]",,,,,,,99.5 ± 0.3%,86.8 ± 0.7%,79.1 ± 0.4%,59.3 ± 0.0%,55.0 ± 0.6%,41.0 ± 2.6%,
"O=C(O)CN1CCN(CC(=O)O)CCN(Cc2cccs2)CC1 [Chelator F, 2-[4-(carboxymethyl)-7-(thiophen-2-ylmethyl)-1,4,7-triazonan-1-yl]acetic acid]",,,,,,,100 ± 0.1%,95.7 ± 0.5%,87.5 ± 0.4%,59.5 ± 0.6%,53.4 ± 1.7%,42.3 ± 0.3%,
